Patent publication US20240358744A1, “WOUND HEALING DRESSINGS AND FORMULATIONS AND METHODS OF USE THEREOF” (POLAROID IP B.V., priority 2023, published 2024)
≈ marks a conversion by molar mass, not a printed value.

Assays:
[1] = test system: Escherichia coli ATCC 25922; assay: MBC, spot plating after 24 h; settings: for MBC EC25922: Table 18
Protocol: (§5) To determine MBC compound concentrations breakpoints were estimated from MIC curves. Overnight cultures were set up as described above for all bacterial strains. The following day overnight cultures were adjusted to give a cell density of 5×10^5 cells per mL. Briefly, cultures were adjusted to the McFarland standard (0.08-0.12) and diluted (1:150). Adjusted cultures were inoculated into 96 well plates with 50 μL sterile Muller-Hinton broth (MHB) and 2 concentrations of each compound. […] MBC cultures were quantified by serial dilution in a 96 well plate and spot plating onto Muller-Hinton agar (MHA). MHA plates were incubated at 37° C. for 24 h and counted. Results are presented as CFU per mL.
(§6) To determine MBC compound concentrations, breakpoints were estimated from MIC curves. Overnight cultures were set up as described above for all bacterial strains. The following day overnight cultures were adjusted to give a cell density of 5×10^5 cells per mL. Briefly, cultures were adjusted to the McFarland standard (0.08-0.12) and diluted (1:150). Adjusted cultures were inoculated into 96 well plates with 50 μL sterile Muller-Hinton broth (MHB) and 2 concentrations of each compound. […] MBC cultures were quantified by serial dilution in a 96 well plate and spot plating onto Muller-Hinton agar (MHA). MHA plates were incubated at 37° C. for 24 hours and counted.

[2] = test system: Primary Human Dermal Fibroblast (HDFs); assay: LDH cytotoxicity assay, HDF; format: cell-based; settings: Table 16, summarized cell toxicity value, 24 hours treatment
Protocol: (§1) Primary Human Dermal Fibroblast (HDFs) and Human Keratinocyte (HaCaT) cells were selected for cytotoxicity and proliferation testing. HDFs were cultured in high glucose, no glutamine, no phenol red, Dulbecco's Modified Eagle Medium (DMEM) (GIBCO™). HDF media was further supplemented with 10% heat-inactivated fetal bovine serum (GIBCO™), 1% L-glutamine (GIBCO™) and 1% Penicillin-streptomycin (GIBCO™). HaCaTs cells were cultured in high glucose, no glutamine, no calcium DMEM (GIBCO™) supplemented with 10% heat inactivated foetal bovine serum, 1% L-glutamine, 1% Penicillin-streptomycin 1 mM calcium chloride (Sigma) throughout.
(§2) Mammalian cell populations were maintained in standard culture conditions at 37° C., 5% CO2 and >95% relative humidity. Upon reaching 80% total confluency, cells were removed from the incubator, the culture media aspirated, and the monolayer washed with Dulbecco's […] (DPBS). After washing, 10 mL of 1% trypsin (GIBCO™) was added to the flask and incubated to facilitate the detachment of cells from the culture vessel. Following dissociation, 10 mL of culture media was then added to each flask to neutralize the trypsin enzyme activity. The total 20-mL flask volume was transferred into a universal tube and centrifuged at 400 rcf for 5 minutes. Once complete, the pellet of cells was re-suspended in 10 mL warmed culture media and the number of cells per mL was determined using a hemocytometer counting chamber. Cell suspensions were then adjusted to 5×10^4 cells/mL for HDFs and 1×10^5 cells/mL for HaCaTs. 100 μL of the cell suspension was added to each well of a sterile, cell-culture-treated 96-well microtiter plate. The plates were incubated in standard culture conditions for 16-24 hours to allow cellular adherence to the culture vessel. […] Culture plates were removed from the incubator, the media removed; and monolayers washed with 100 μL of warmed DPBS. The contents of the test item dilution plates were transferred to the culture plates. […]
(§3) The secretion of lactate dehydrogenase (LDH) enzyme was used for quantitatively measuring cell damage and cytotoxicity. As damage to the cell plasma membrane releases LDH into the cell culture media, the extracellular LDH in the media can be quantified by a coupled enzymatic reaction in which LDH catalyzes the conversion of lactate to pyruvate via NAD+ reduction to NADH. […]
(§4) Following incubation with the selected compounds, 50 μL of media from each well was transferred to the corresponding well of a fresh 96 well culture plate. The presence of Lactate dehydrogenase (LDH) was then quantified using the INVITROGEN™ CyQUANT™ LDH Cytotoxicity Assay, fluorescence kit. Total fluorescence was measured by reading the plates on a plate reader at an excitation of 560 nm and an emission of 590 nm. […]

[3] = test system: Human Keratinocyte (HaCaT) cells; assay: LDH cytotoxicity assay, HaCaT; format: cell-based; settings: Table 16, summarized cell toxicity value, 24 hours treatment
Protocol: as §1, §2, §3, §4

[4] = test system: Klebsiella pneumoniae KL1; assay: MIC, broth microdilution in MH broth (resazurin); settings: Table 17; modified Gompertz model; not marked ^: unreliable estimation, interpret with caution
[5] = test system: Enterococcus faecalis ATCC 19433; assay: MIC, broth microdilution in MH broth (resazurin); settings: Table 17, modified Gompertz model
[6] = test system: Klebsiella pneumoniae KL1; assay: MBC, spot plating after 24 h
Protocol: as §5, §6

[7] = test system: Staphylococcus aureus MR1; assay: MIC, broth microdilution in MH broth (resazurin); settings: Table 17; modified Gompertz model; not marked ^: unreliable estimation, interpret with caution
[8] = test system: Pseudomonas aeruginosa ATCC 27853; assay: MIC, broth microdilution in MH broth (resazurin); settings: Table 17; modified Gompertz model; not marked ^: unreliable estimation, interpret with caution
[9] = test system: Escherichia coli ATCC 25922; assay: MIC, broth microdilution in MH broth (resazurin); settings: Table 17; modified Gompertz model; not marked ^: unreliable estimation, interpret with caution
[10] = test system: Staphylococcus aureus NRS384; format: cell-based; settings: Example 11
[11] = test system: Pseudomonas aeruginosa ATCC 27853; assay: MBC, spot plating after 24 h; settings: Pseudomonas aeruginosa 27853; Example 11
Protocol: as §5, §6

[12] = test system: Enterococcus faecalis ATCC 51299; assay: MBC, spot plating after 24 h; settings: Enterococcus faecalis EF51299; Example 11
Protocol: as §5, §6

[13] = test system: Enterococcus faecalis ATCC 19433; assay: MBC, spot plating after 24 h; settings: Enterococcus faecalis EF19433; Example 11
Protocol: as §5, §6

[14] = test system: Staphylococcus aureus ATCC 29213; assay: MBC, spot plating after 24 h; settings: Staphylococcus aureus 29213; Example 11
Protocol: as §5, §6

[15] = test system: Staphylococcus aureus MR1; assay: MBC, spot plating after 24 h; settings: Example 11
Protocol: as §5, §6

[16] = Assessment of MIC of select compounds, DMSO stocks (Example 8, Table 21); format: cell-based
[17] = test system: Staphylococcus aureus NRS384; assay: Murine wound infection model, bacterial CFU/wound (Example 6); settings: Study 2 pilot; daily application of vancomycin (10 μg per wound)
[18] = test system: S. aureus NRS 384; assay: Mouse Staphylococcus aureus-induced wound infection model, bacteria load in wound site (Studies I-V); settings: for Ig(CFU/wound site) / ΔIg(CFU/wound site) vs infection control: Study III (Table 12), 1 mg/ml
[19] = 10 μL/wound site, 10 μg/wound site, twice a day, 24 h p.i.
[20] = 10 μL/wound site, 10 μg/wound site, twice a day, 48 h p.i.
[21] = 10 μL/wound site, 10 μg/wound site, twice a day, 72 h p.i.
[22] = 50 μL/wound site, 50 μg/wound site, twice a day, 24 h p.i.

For `CCCCCCCCCCCCCCCCCC[N+](C)(C)CCOCCO.[Br-]` [39637 105543], the “MBC EC25922” value [1] was 25 µM.

With `CCCCCCCCCCCCCCCCCC[N+](C)(C)CCOCCO.[Br-]` [Compound 39637_105543] the “Mammalian Cell Cytotoxicity, HDF” value [2] was 6.3 µM, the “Mammalian Cell Cytotoxicity, HaCaT” value [3] was 6.3 µM and the “MIC KL1” value [4] was “+infinity”. For the same compound, the “MIC EF19433” value ([5]; marked ^: reliable estimation of MIC) was 3.20^ μM.

For `CCCCCCCCCCCCCCCCCC[N+](C)(C)CCOCCO.[Br-]` [Compound 39637_109466], the “Mammalian Cell Cytotoxicity, HDF” value [2] was 6.3 µM, the “Mammalian Cell Cytotoxicity, HaCaT” value [3] was 6.3 µM and the “MBC KL1” value ([6]; Table 18) was 50 µM. The “MBC EC25922” value [1] was 25 µM.

With `CCCCCCCCCCCC[N+](C)(C)CCOCCO.[Br-]` [Compound 40597_109444] the “Mammalian Cell Cytotoxicity, HDF” value [2] was 100 µM, the “Mammalian Cell Cytotoxicity, HaCaT” value [3] was 100 µM and the “MIC KL1” value [4] was 0.01 µM. The “MIC MR1” value [7] was 0.94 µM.

With `CCCCCC[N+](C)(C)CCOCCO.[Br-]` [Compound 40598_109448] the “Mammalian Cell Cytotoxicity, HDF” value [2] was over 100 µM, the “Mammalian Cell Cytotoxicity, HaCaT” value [3] was over 100 µM and the “MIC PA27853” value [8] was 0.06 µM. The “MIC EF19433” value ([5]; not marked ^: unreliable estimation, interpret with caution) was “Unstable” and the “MIC EC25922” value [9] was 0.83 µM.

With `CN[C@H](CC(C)C)C(=O)N[C@H]1C(=O)N[C@@H](CC(N)=O)C(=O)N[C@H]2C(=O)N[C@H]3C(=O)N[C@H](C(=O)N[C@H](C(=O)O)c4cc(O)cc(O)c4-c4cc3ccc4O)[C@H](O)c3ccc(c(Cl)c3)Oc3cc2cc(c3O[C@@H]2O[C@H](CO)[C@@H](O)[C@H](O)[C@H]2O[C@H]2C[C@](C)(N)[C@H](O)[C@H](C)O2)Oc2ccc(cc2Cl)[C@H]1O` [Van] the “MBC Concentration (μM) C” value [10] was 0.02 µM (≈ 0.029 µg/mL), the “MBC Concentration (μM) F” value ([6]; Klebisella pneumoniae KL1, Example 11) was 1.25 µM (≈ 1.81 µg/mL) and the “MBC Concentration (μM) G” value [11] was 2.50 µM (≈ 3.62 µg/mL). The “MBC Concentration (μM) D” value [12] was 0.04 µM (≈ 0.058 µg/mL), the “MBC Concentration (μM) E” value [13] was 0.08 µM (≈ 0.116 µg/mL) and the “MBC Concentration (μM) A” value [14] was 0.02 µM (≈ 0.029 µg/mL). The “MBC Concentration (μM) H” value ([1]; Escherichia coli EC25922, Example 11) was 0.31 µM (≈ 0.449 µg/mL) and the “MBC Concentration (μM) B” value [15] was 0.02 µM (≈ 0.029 µg/mL).

With `CN[C@H](CC(C)C)C(=O)N[C@H]1C(=O)N[C@@H](CC(N)=O)C(=O)N[C@H]2C(=O)N[C@H]3C(=O)N[C@H](C(=O)N[C@H](C(=O)O)c4cc(O)cc(O)c4-c4cc3ccc4O)[C@H](O)c3ccc(c(Cl)c3)Oc3cc2cc(c3O[C@@H]2O[C@H](CO)[C@@H](O)[C@H](O)[C@H]2O[C@H]2C[C@](C)(N)[C@H](O)[C@H](C)O2)Oc2ccc(cc2Cl)[C@H]1O` [Vancomycin] the “MIC Concentration” value ([16]; Enterococcus faecalis EF19433) was 5.00 µM, the “MIC Concentration” value ([16]; Escherichia coli EC25922) was 0.63 µM and the “MIC Concentration” value ([16]; Klebisella oxytoca KL1) was 0.63 µM. The “MIC Concentration” value ([16]; Pseudomonas aeruginosa 27853) was 5.00 µM, the “MIC Concentration” value ([16]; Staphylococcus aureus 29213) was 0.04 µM and the “MIC Concentration” value ([16]; Staphylococcus aureus MR1) was 0.04 µM. For the same compound, the “MIC Concentration” value ([16]; Staphylococcus aureus NRS384) was 0.04 µM, the “log reduction in wound S. aureus at 24 hrs post-seeding” value [17] was 1 log and the “log reduction in wound S. aureus at 72 hrs post-seeding” value [17] was 1 log. The “Ig (CFU/wound site) 12 h p.i.” value ([18]; Study I, inoculum 4.20E+06 CFU/wound site, 39637 and 20-1 100 μM, 50 μL/wound site, once a day, Vancomycin 1 mg/ml, 10 μL/wound site, twice a day, starting at 5 min p.i.) was 8.47 ± 0.22 Ig (CFU/wound site), the “Ig (CFU/wound site) 24 h p.i.” value ([18]; Study I, same regimens as E1) was 7.67 ± 0.60 Ig (CFU/wound site) and the “ΔIg (CFU/wound site) vs 12 h infection control” value ([18]; Study I, same regimens as E1) was −0.11 ± 0.22 Ig (CFU/wound site). The “ΔIg (CFU/wound site) vs 24 h infection control” value ([18]; Study I, same regimens as E1) was −1.12 ± 0.60 Ig (CFU/wound site), the “effect at 12-hour post infection” value ([18]; Study I, single dose at 10 μg) was “not manifest” and the “Ig(CFU/wound site)” value [18, 19] was 7.67 Ig(CFU/wound site). For the same compound, the “ΔIg(CFU/wound site) vs infection control” value [18, 19] was −1.11 Ig(CFU/wound site), the “Ig(CFU/wound site)” value [18, 20] was 5.29 Ig(CFU/wound site) and the “ΔIg(CFU/wound site) vs infection control” value [18, 20] was −3.28 Ig(CFU/wound site). For the same compound, the “Ig(CFU/wound site)” value [18, 21] was 5.12 Ig(CFU/wound site), the “ΔIg(CFU/wound site) vs infection control” value [18, 21] was −2.83 Ig(CFU/wound site) and the “Ig(CFU/wound site)” value [18, 22] was 4.37 Ig(CFU/wound site). The “ΔIg(CFU/wound site) vs infection control” value [18, 22] was −4.40 Ig(CFU/wound site).
